We go through 19 compounds from patent publication US11319315B2, “Cyclohexyl acid triazole azoles as LPA antagonists” (BRISTOL-MYERS SQUIBB COMPANY, priority 2017, dated 2022).

One assay relates to IPF patients. Particulars: 26-week clinical trial in IPF patients; cited from earlier work.
In a further assay the target is T1, human LPA1 (Homo sapiens, UniProt Q92633).
T1 construct: expressed in transfected cells; host or cells: Chinese hamster ovary (CHO) cells
The assay is described as follows: LPA1 functional antagonist assay (LPA-induced calcium flux in CHO cells overexpressing human LPA1). Type of assay: cell-based. Conditions: read-out: hLPA1 IC50. The method, boiled down: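 CHO cells overexpressing human LPA1, dye-loaded 30 min at 37 °C, then given compound (0.08 nM–5 μM final, 0.5% DMSO) in HBSS/20 mM HEPES/0.1% fatty-acid-free BSA for 20 min at room temperature before 10 nM LPA. IC50 as 50% inhibition of LPA-evoked calcium flux, 4-parameter logistic fit.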
On the technique in general: Calcium flux is commonly read through the fluorescence of an indicator in the cells.

The test system of a further assay is CD-1 female mice. The experiment in a line: LPA challenge with plasma histamine evaluation (acute in vivo histamine assay). More on the design: species or system mouse. Conditions: 1 mg/kg dose. The method, then:
LPA Challenge with Plasma Histamine Evaluation.
Compound is dosed orally p.o. 2 hours to CD-1 female mice prior to the LPA challenge. The mice are then dosed via tail vein (IV) with 0.15 mL of LPA in 0.1% BSA/PBS (2 μg/μL). Exactly 2 minutes following the LPA challenge, the mice are euthanized by decapitation and the trunk blood is collected. These samples are collectively centrifuged and individual 75 μL samples are frozen at −20° C. until the time of the histamine assay.
The plasma histamine analysis was run by standard EIA (Enzyme Immunoassay) methods. Plasma samples were thawed and diluted 1:30 in 0.1% BSA in PBS. The EIA protocol for histamine analysis as outlined by the manufacturer was followed (Histamine EIA, Oxford Biomedical Research, EA #31).
The LPA used in the assay is formulated as follows: LPA (l-oleoyl-2-hydroxy-sn-glycero-3-phosphate (sodium salt), 857130P, Avanti Polar Lipids) is prepared in 0.1% BSA/PBS for total concentration of 2 μg/μL. 13 mg of LPA is weighed and 6.5 mL 0.1% BSA added, vortexed and sonicated for 1 hour until a clear solution is achieved.

Another assay has as its system nerve-injured mice. Conditions: pretreatment; cited from earlier work.
A further assay concerns MCT. Particulars: MCT cells, co-treatment with LPA; cited from earlier work.
In assay [1] the test system is pancreatic cancer cell lines. Conditions: cited from earlier work.
Assay [2] deals with human foetal lung fibroblasts. Conditions: cited from earlier work.
The subject of a further assay is UUO mice. Conditions: cited from earlier work.
Where [3] appears, read: inhibition of calcium flux induced by 10 nM LPA, CHO cells overexpressing human LPA1.

Like-named read-outs stand apart in the source and are kept apart here.

T1 sequence (Q92633 whole entry): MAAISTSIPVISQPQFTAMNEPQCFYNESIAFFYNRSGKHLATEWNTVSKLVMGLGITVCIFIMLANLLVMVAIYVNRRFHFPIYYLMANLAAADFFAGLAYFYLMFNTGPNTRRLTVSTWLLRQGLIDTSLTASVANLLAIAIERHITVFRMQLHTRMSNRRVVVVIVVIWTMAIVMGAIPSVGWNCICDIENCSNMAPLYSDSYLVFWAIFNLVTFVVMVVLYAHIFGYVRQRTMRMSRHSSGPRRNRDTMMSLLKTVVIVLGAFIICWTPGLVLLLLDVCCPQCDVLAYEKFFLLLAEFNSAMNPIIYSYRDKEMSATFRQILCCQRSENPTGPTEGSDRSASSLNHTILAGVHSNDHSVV

Turning to `Cc1noc(-c2ccc(-c3ccc(C4(C(=O)O)CC4)cc3)cc2)c1NC(=O)O[C@H](C)c1ccccc1` [BMS-986020], the “rate of FVC (forced vital capacity) decline” value in the assay with IPF patients was “significantly reduce”.
As to `Cc1nc(-c2nnn(C)c2CNc2noc(CC3CC3)n2)ccc1O[C@H]1CCC[C@H](C(=O)O)C1` [Example 70], the IC50 (in general, the concentration that inhibits the measured activity by half) on human LPA1 (setting [3]) is 0.015 µM. For the same compound, the “histamine, acute in vivo histamine assay in CD-1 mice” value in the assay on CD-1 female mice is −39%.
In the case of `CCc1nc(-c2nnn(C)c2CNc2nc(C(C)C)ns2)ccc1O[C@H]1CCC[C@H](C(=O)O)C1` [Example 398, (1S,3S)-3-((2-ethyl-6-(5-(((3-isopropyl-1,2,4-thiadiazol-5-yl)amino)methyl)-1-methyl-1H-1,2,3-triazol-4-yl)pyridin-3-yl)oxy)cyclohexane-1-carboxylic acid], the half-inhibitory concentration (IC50) on human LPA1 is 0.059 µM.
On the same count and under the same terms, under `CCCc1nsc(NCc2c(-c3ccc(O[C@H]4CCC[C@H](C(=O)O)C4)c(CC)n3)nnn2C)n1` [Example 399, (1S,3S)-3-((2-ethyl-6-(1-methyl-5-(((3-propyl-1,2,4-thiadiazol-5-yl)amino)methyl)-1H-1,2,3-triazol-4-yl)pyridin-3-yl)oxy)cyclohexane-1-carboxylic acid] stands 0.073 µM.
As for `Cc1nc(-c2nnn(C)c2Cc2nnn(CCC3CC3)n2)ccc1O[C@H]1CCC[C@H](C(=O)O)C1` [Example 400, (1S,3S)-3-{[6-(5-{[2-(2-cyclo-propylethyl)-2H-1,2,3,4-tetrazol-5-yl]methyl}-1-methyl-1H-1,2,3-triazol-4-yl)-2-methylpyridin-3-yl]oxy}cyclohexane-1-carboxylic acid], the values for the IC50 on human LPA1 (setting [3]) and on human LPA1 were 0.129 µM and 0.128 µM, respectively.
As to `COCCCn1nnc(Cc2c(-c3ccc(O[C@H]4CCC[C@H](C(=O)O)C4)c(C)n3)nnn2C)n1` [Example 401, (1S,3S)-3-{[6-(5-{[2-(3-methoxy-propyl)-2H-1,2,3,4-tetrazol-5-yl]methyl}-1-methyl-1H-1,2,3-triazol-4-yl)-2-methylpyridin-3-yl]oxy}cyclohexane-1-carboxylic acid], the IC50 on human LPA1 was 1.12 µM.
On the same count and under the same terms, under `Cc1nc(-c2nnn(C)c2Cc2nnn(Cc3ccccc3)n2)ccc1O[C@H]1CCC[C@H](C(=O)O)C1` [Example 402, (1S,3S)-3-[(6-{5-[(2-benzyl-2H-1,2,3,4-tetrazol-5-yl)methyl]-1-methyl-1H-1,2,3-triazol-4-yl}-2-methylpyridin-3-yl)oxy]cyclo-hexane-1-carboxylic acid] stands 0.047 µM; under `COC[C@@H](C)Oc1nnn(Cc2c(-c3ccc(O[C@H]4CCC[C@H](C(=O)O)C4)c(C)n3)nnn2C)n1` [Example 403, (1S,3S)-3-[(6-{5-[(5-{[(2R)-1-methoxypropan-2-yl]oxyl}-2H-1,2,3,4-tetrazol-2-yl)methyl]-1-methyl-1H-1,2,3-triazol-4-yl}-2-methylpyridin-3-yl)oxy]cyclo-hexane-1-carboxylic acid], 0.25 µM; under `COCCCOc1nnn(Cc2c(-c3ccc(O[C@H]4CCC[C@H](C(=O)O)C4)c(C)n3)nnn2C)n1` [Example 404, (1S,3S)-3-{[6-(5-{[5-(3-methoxy-propoxy)-2H-1,2,3,4-tetrazol-2-yl]methyl}-1-methyl-1H-1,2,3-triazol-4-yl)-2-methylpyridin-3-yl]oxy}cyclohexane-1-carboxylic acid], 0.365 µM.
With `Cc1nc(-c2nnn(C)c2Cn2nnc(OCC3CC4CCC3C4)n2)ccc1O[C@H]1CCC[C@H](C(=O)O)C1` (stereo partly drawn) [Example 405, (1S,3S)-3-{[6-(5-{[5-({bicyclo[2.2.1]heptan-2-yl}methoxy)-2H-1,2,3,4-tetrazol-2-yl]methyl}-1-methyl-1H-1,2,3-triazol-4-yl)-2-methylpyridin-3-yl]oxy}cyclohexane-1-carboxylic acid], at human LPA1, the IC50 amounted to 0.047 µM.
Turning to `COCCCCCOc1nnn(Cc2c(-c3ccc(O[C@H]4CCC[C@H](C(=O)O)C4)c(C)n3)nnn2C)n1` [Example 406, (1S,3S)-3-({6-[5-({5-[(5-methoxy-pentyl)oxy]-2H-1,2,3,4-tetrazol-2-yl}methyl)-1-methyl-1H-1,2,3-triazol-4-yl]-2-methylpyridin-3-yl}oxy)cyclohexane-1-carboxylic acid], at human LPA1, the IC50 worked out at 0.681 µM.
In the case of `COCCOc1nnn(Cc2c(-c3ccc(O[C@H]4CCC[C@H](C(=O)O)C4)c(C)n3)nnn2C)n1` [Example 407, (1S,3S)-3-{[6-(5-{[5-(2-methoxy-ethoxy)-2H-1,2,3,4-tetrazol-2-yl]methyl}-1-methyl-1H-1,2,3-triazol-4-yl)-2-methylpyridin-3-yl]oxy}cyclohexane-1-carboxylic acid], the half-inhibitory concentration (IC50) at human LPA1 was determined as 0.142 µM.
`Cc1nc(-c2nnn(C)c2Cn2nnc(N(C)CC3CC3)n2)ccc1O[C@H]1CCC[C@H](C(=O)O)C1` [Example 408, (1S,3S)-3-({6-(5-({5-[(cyclopropylmethyl)(methyl)amino]-2H-1,2,3,4-tetrazol-2-yl}methyl)-1-methyl-1H-1,2,3-triazol-4-yl]-2-methylpyridin-3-yl}oxy)cyclohexane-1-carboxylic acid]: on human LPA1, the IC50 was found to be 0.339 µM.
For `Cn1nnc(-c2ncc(O[C@H]3CCC[C@H](C(=O)O)C3)cc2F)c1CNc1noc(CCC2CC2)n1` [Example 409, (1S,3S)-3-((6-(5-(((5-(2-cyclopropylethyl)-1,2,4-oxadiazol-3-yl)amino)methyl)-1-methyl-1H-1,2,3-triazol-4-yl)-5-fluoropyridin-3-yl)oxy)cyclohexane-1-carboxylic acid], the IC50 at human LPA1 was 1.92 µM.
On the same count and under the same terms, the result for `Cc1nc(-c2nnn(C)c2CNc2noc(COCCCCF)n2)ccc1O[C@H]1CCC[C@H](C(=O)O)C1` [Example 410, (1S,3S)-3-((6-(5-(((5-((4-fluoro-butoxy)methyl)-1,2,4-oxadiazol-3-yl)amino)methyl)-1-methyl-1H-1,2,3-triazol-4-yl)-2-methylpyridin-3-yl)oxy)cyclohexane-1-carboxylic acid] reads 0.043 µM.
As to `Cc1nc(-c2nnn(C)c2Nc2nc(-c3ccccc3)no2)ccc1O[C@H]1CCC[C@H](C(=O)O)C1` [Example 411, (1 S,3S)-3-((2-methyl-6-(1-methyl-5-((3-phenyl-1,2,4-oxadiazol-5-yl)amino)-1H-1,2,3-triazol-4-yl)pyridin-3-yl)oxy)cyclohexane-1-carboxylic acid], the IC50 at human LPA1 (setting [3]) came to 1.44 µM.
Regarding `Cc1nc(-c2nnn(C)c2Cn2nnc(C3CC3)n2)ccc1O[C@H]1CCC[C@H](C(=O)O)C1` [Example 412, (1S,3S)-3-((6-(5-((5-cyclopropyl-2H-tetrazol-2-yl)methyl)-1-methyl-1H-1,2,3-triazol-4-yl)-2-methyl-pyridin-3-yl)oxy)cyclohexane-1-carboxylic acid], the IC50 at human LPA1 amounted to 0.384 µM.
With `C[C@@H](N)[C@H]1CC[C@H](C(=O)Nc2ccncc2)CC1` [Example Y-27632], the allodynia and hyperalgesia entry in the assay with nerve-injured mice was “completely abolished”.
For the compound `Cc1noc(-c2ccc(CSCCC(=O)O)cc2)c1NC(=O)OC(C)c1ccccc1Cl` (stereo not shown) [Ki16425], the “LPA-induced CTGF expression” value in the assay on MCT was “almost completely suppressed”. Besides, the “LPA-induced and ascites-induced invasion activity” value in assay [1] (highly peritoneal metastatic pancreatic cancer cell line) is “blocked”. Moreover, the “in vitro migration in response to LPA and peritoneal fluid (ascites) from pancreatic cancer patients” value in assay [1] (pancreatic cancer cell lines) is on record as “effectively blocked”. The “chemotaxis of human foetal lung fibroblasts induced by BAL from IPF patients” value in assay [2] is given as “blocked”. In addition, in the assay with UUO mice, the “renal fibrosis profile in UUO mice” value is on record as “closely resembled the profile of LPA1 (−/−) mice”.
